In patent publication US20250154173A1 (Merck Sharp & Dohme LLC, priority 2023, published 2025):

Target: T1, GST-RIPK1 (recombinant GST-RIPK1 kinase domain (residues 1-327)) (Homo sapiens, UniProt Q13546)
T1 construct: recombinant GST-RIPK1 kinase domain (residues 1-327) enzyme produced from baculovirus-transfected Sf21 cells; host or cells: baculovirus-transfected Sf21 insect cells
T1 sequence (Q13546 1-327): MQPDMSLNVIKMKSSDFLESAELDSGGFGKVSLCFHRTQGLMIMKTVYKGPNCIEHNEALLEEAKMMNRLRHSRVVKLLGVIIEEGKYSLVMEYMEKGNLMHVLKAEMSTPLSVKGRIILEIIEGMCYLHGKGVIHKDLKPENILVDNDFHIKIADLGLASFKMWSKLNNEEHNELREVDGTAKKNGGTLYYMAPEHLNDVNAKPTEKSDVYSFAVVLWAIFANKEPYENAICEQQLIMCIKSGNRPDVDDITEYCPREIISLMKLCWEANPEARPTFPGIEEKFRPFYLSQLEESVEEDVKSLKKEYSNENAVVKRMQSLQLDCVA
Assay: RIPK1-ADP-Glo Enzymatic Assay
Format: biochemical
Settings: ten-point titration, top compound concentration of 100000 nM; 25 nM GST-RIPK1, 300 μM ATP, 3 μM dephosphorylated-MBP; 30 min pre-incubation, 150 min reaction
In short: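 ADP-Glo luminescence quantifies ADP formed over 150 minutes by 25 nM Sf21-produced GST-RIPK1 (1-327) using 300 μM ATP and 3 μM dephosphorylated MBP, following 30-minute compound preincubation at 1% DMSO. Ten-point 1:3 series from 100000 nM gave EC50 via four-parameter sigmoidal regression.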

SMILES | EC50 [nM]
N#Cc1cccc(OC2CC3(C2)O[C@@H]2CC[C@@H](c4ccccc4)N2C3=O)c1 (stereo partly drawn) [Example 8.5, 3-{[(5′S,7a′R)-3′-oxo-5′-phenyltetrahydro-3′H-spiro[cyclobutane-1,2′-pyrrolo[2,1-b][1,3]oxazol]-3-yl]oxy}benzonitrile] | 20
O=C1N2[C@@H](CC[C@H]2c2cc(F)cc(F)c2)O[C@]12C[C@H](Oc1ncnc3sccc13)C2 [Example 9.30, (1r,3R,5′S,7a′R)-5′-(3,5-difluorophenyl)-3-[(thieno[2,3-d]pyrimidin-4-yl)oxy]tetrahydro-3′H-spiro[cyclobutane-1,2′-pyrrolo[2,1-b][1,3]oxazol]-3′-one] | 9
O=C1N2C(CC[C@H]2c2cnccn2)OC12CC(OCc1csc(C3CC3)n1)C2 (stereo partly drawn) [Example 18.71, (5′S)-3-[(2-cyclopropyl-1,3-thiazol-4-yl)methoxy]-5′-(pyrazin-2-yl)tetrahydro-3′H-spiro[cyclobutane-1,2′-pyrrolo[2,1-b][1,3]oxazol]-3′-one] | 796
N#Cc1ccc(COC2CC3(C2)O[C@@H]2CC[C@@H](c4cnccn4)N2C3=O)cc1 (single isomer, unassigned) [Example 22.2, 4-((((5′S,7a′R)-3′-oxo-5′-(pyrazin-2-yl)tetrahydro-3′H-spiro[cyclobutane-1,2′-pyrrolo[2,1-b]oxazol]-3-yl)oxy)methyl)benzonitrile] | 27
NC(=O)c1ccnc(O[C@H]2C[C@@]3(C2)O[C@@H]2CC[C@@H](c4ccc(F)cc4)N2C3=O)c1 [Example 10.6, 2-(((1r,3R,5′S,7a′R)-5′-(4-fluorophenyl)-3′-oxotetrahydro-3′H-spiro[cyclobutane-1,2′-pyrrolo[2,1-b]oxazol]-3-yl)oxy)isonicotinamide] | 52
N#Cc1ccc2c(O[C@H]3C[C@@]4(C3)O[C@@H]3CC[C@@H](c5cc(F)cc(F)c5)N3C4=O)ncnn12 [Example 11.2, 4-(((1r,3R,5′S,7a′R)-5′-(3,5-difluorophenyl)-3′-oxotetrahydro-3′H-spiro[cyclobutane-1,2′-pyrrolo[2,1-b]oxazol]-3-yl)oxy)pyrrolo[2,1-f][1,2,4]triazine-7-carbonitrile] | 16
O=C1N2[C@@H](CC[C@H]2c2ccc(F)cc2)O[C@]12C[C@H](Oc1ncnn3cccc13)C2 [Example 9.27, (1r,3R,5′S,7a′R)-5′-(4-fluorophenyl)-3-[(pyrrolo[2,1-f][1,2,4]triazin-4-yl)oxy]tetrahydro-3′H-spiro[cyclobutane-1,2′-pyrrolo[2,1-b][1,3]oxazol]-3′-one] | 12
O=C1N2[C@@H](CC[C@H]2c2ccc(F)cc2)O[C@]12C[C@H](Oc1ccnn3cccc13)C2 [Example 8.22, (1r,3R,5′S,7a′R)-5′-(4-fluorophenyl)-3-(pyrrolo[1,2-b]pyridazin-4-yloxy)tetrahydro-3′H-spiro[cyclobutane-1,2′-pyrrolo[2,1-b]oxazol]-3′-one] | 29
O=C1N2[C@@H](CC[C@H]2c2cnccn2)OC12CC(OCc1ccnc3ccnn13)C2 (stereo partly drawn) [Example 18.60, (5′S)-5′-(pyrazin-2-yl)-3-[(pyrazolo[1,5-a]pyrimidin-7-yl)methoxy]tetrahydro-3′H-spiro[cyclobutane-1,2′-pyrrolo[2,1-b][1,3]oxazol]-3′-one] | 91
Cc1ncccc1COC1CC2(C1)O[C@@H]1CC[C@@H](c3cnccn3)N1C2=O (stereo partly drawn) [Example 20.5, (5′S,7a′R)-3-[(2-methylpyridin-3-yl)methoxy]-5′-(pyrazin-2-yl)tetrahydro-3′H-spiro[cyclobutane-1,2′-pyrrolo[2,1-b][1,3]oxazol]-3′-one] | 74
O=C1N2[C@@H](CC[C@H]2c2cc(F)cc(F)c2)O[C@]12C[C@H](Oc1cc(-c3nn[nH]n3)ccn1)C2 [Example 10.3, (1r,3R,5′S,7a′R)-3-((4-(2H-tetrazol-5-yl)pyridin-2-yl)oxy)-5′-(3,5-difluorophenyl)tetrahydro-3′H-spiro[cyclobutane-1,2′-pyrrolo[2,1-b]oxazol]-3′-one] | 11
O=C1N2C(CC[C@H]2c2cnccn2)OC12CC(OCc1cccc(CCn3cnnc3)c1)C2 (stereo partly drawn) [Example 18.9, (5′S)-5′-(pyrazin-2-yl)-3-({3-[2-(4H-1,2,4-triazol-4-yl)ethyl]phenyl}methoxy)tetrahydro-3′H-spiro[cyclobutane-1,2′-pyrrolo[2,1-b][1,3]oxazol]-3′-one] | 100
N#Cc1cc(F)cc(OC2CC3(C2)O[C@@H]2CC[C@@H](c4cnccn4)N2C3=O)c1 (some centres unmarked) [Example 19.16] | 18
N#Cc1ccnc(O[C@H]2C[C@@]3(C2)O[C@@H]2CC[C@@H](c4cc(F)cc(F)c4)N2C3=O)n1 [Example 9.57, 2-(((1r,3R,5′S,7a′R)-5′-(3,5-difluorophenyl)-3′-oxotetrahydro-3′H-spiro[cyclobutane-1,2′-pyrrolo[2,1-b]oxazol]-3-yl)oxy)pyrimidine-4-carbonitrile] | 69
O=C1N2[C@@H](CC[C@H]2c2ccccc2)OC12CC(Oc1ccnc(C(F)(F)F)c1)C2 (stereo partly drawn) [Example 8.4, (5′S,7a′R)-5′-phenyl-3-{[2-(trifluoromethyl)pyridin-4-yl]oxy}tetrahydro-3′H-spiro[cyclobutane-1,2′-pyrrolo[2,1-b][1,3]oxazol]-3′-one] | 86
CC(OC1CC2(C1)OC1CCC(c3cc(F)cc(F)c3)N1C2=O)c1ccccc1 (single isomer, unassigned) [Example 15.4, ((1R or S),3R,5′S,7a′R)-5′-(3,5-difluorophenyl)-3-((R or S)-1-phenylethoxy)tetrahydro-3′H-spiro[cyclobutane-1,2′-pyrrolo[2,1-b]oxazol]-3′-one] | 19
CC(OC1CC2(C1)O[C@@H]1CC[C@@H](c3cc(F)cc(F)c3)N1C2=O)c1ccccc1 (single isomer, unassigned) [Example 15.1, ((1S or R),3R,5′S,7a′R)-5′-(3,5-difluorophenyl)-3-((S or R)-1-phenylethoxy)tetrahydro-3′H-spiro[cyclobutane-1,2′-pyrrolo[2,1-b]oxazol]-3′-one] | 284
O=C1N2[C@@H](CC[C@H]2c2ccc(F)cc2)OC12CC(OCc1cccnc1)C2 (stereo partly drawn) [Example 9.60, (5′S,7a′R)-5′-(4-fluorophenyl)-3-[(pyridin-3-yl)methoxy]tetrahydro-3′H-spiro[cyclobutane-1,2′-pyrrolo[2,1-b][1,3]oxazol]-3′-one] | 188
O=C1N2[C@@H](CC[C@H]2c2cnccn2)OC12CC(Oc1ccc(F)c(F)c1)C2 (stereo partly drawn) [Example 19.22, (5′S,7a′R)-3-(3,4-difluorophenoxy)-5′-(pyrazin-2-yl)tetrahydro-3′H-spiro[cyclobutane-1,2′-pyrrolo[2,1-b][1,3]oxazol]-3′-one] | 12
Cn1ccc([C@@H]2CC[C@H]3O[C@]4(C[C@H](Oc5ncnn6cccc56)C4)C(=O)N32)n1 [Example 9.63, (1r,3R,5′S,7a′R)-5′-(1-methyl-1H-pyrazol-3-yl)-3-[(pyrrolo[2,1-f][1,2,4]triazin-4-yl)oxy]tetrahydro-3′H-spiro[cyclobutane-1,2′-pyrrolo[2,1-b][1,3]oxazol]-3′-one] | 33.3
O=C1N2C(CC[C@H]2c2cnccn2)OC12CC(OCc1ccc3nc(C4CC4)cn3c1)C2 (stereo partly drawn) [Example 18.22, (5′S)-3-[(2-cyclopropylimidazo[1,2-a]pyridin-6-yl)methoxy]-5′-(pyrazin-2-yl)tetrahydro-3′H-spiro[cyclobutane-1,2′-pyrrolo[2,1-b][1,3]oxazol]-3′-one] | 74
O=C1N2[C@@H](CC[C@H]2c2cnccn2)O[C@]12C[C@@H](Oc1ccc(F)cc1F)C2 [Example 7.2, (1s,3S,5′S,7a′R)-3-(2,4-difluorophenoxy)-5′-(pyrazin-2-yl)tetrahydro-3′H-spiro[cyclobutane-1,2′-pyrrolo[2,1-b]oxazol]-3′-one] | 18
CC(OC1CC2(C1)O[C@@H]1CC[C@@H](c3cc(F)cc(F)c3)N1C2=O)c1ncccc1F (single isomer, unassigned) [Example 12.4, (1S or R,3S or R,5′S,7a′R)-5′-(3,5-difluorophenyl)-3-((S or R)-1-(3-fluoropyridin-2-yl)ethoxy)tetrahydro-3′H-spiro[cyclobutane-1,2′-pyrrolo[2,1-b]oxazol]-3′-one] | 329
Cn1ccc([C@@H]2CC[C@H]3O[C@]4(C[C@@H](Oc5cccc(C#N)c5)C4)C(=O)N32)n1 [Example 19.6, 3-{[(1s,3S,5′S,7a′R)-5′-(1-methyl-1H-pyrazol-3-yl)-3′-oxotetrahydro-3′H-spiro[cyclobutane-1,2′-pyrrolo[2,1-b][1,3]oxazol]-3-yl]oxy}benzonitrile] | 203
O=C1N2C(CC[C@H]2c2cnccn2)OC12CC(OCc1ccc3nccn3c1)C2 (stereo partly drawn) [Example 18.19, (5′S)-3-[(imidazo[1,2-a]pyridin-6-yl)methoxy]-5′-(pyrazin-2-yl)tetrahydro-3′H-spiro[cyclobutane-1,2′-pyrrolo[2,1-b][1,3]oxazol]-3′-one] | 110
Cc1cc(Cl)cnc1COC1CC2(C1)O[C@@H]1CC[C@@H](c3cnccn3)N1C2=O (stereo partly drawn) [Example 22.3, (5′S,7a′R)-3-((5-chloro-3-methylpyridin-2-yl)methoxy)-5′-(pyrazin-2-yl)tetrahydro-3′H-spiro[cyclobutane-1,2′-pyrrolo[2,1-b]oxazol]-3′-one] | 33
